Data: PMC12691742, “Anti-Cancer Outcome of Glucocorticoid Receptor Transrepression by Synephrine Derivatives in Hematological Malignancies” (International Journal of Molecular Sciences, 2025)
Entries after “also recorded” stand apart in the source; their conditions may differ.

How the values were obtained:
[1] = target: T1, GR (Homo sapiens, UniProt P04150); test: GR radioligand binding assay, competition with [3H]Dex in K562 cells
T1 construct: endogenous in cells; host or cells: K562
T1 sequence (P04150 1-777): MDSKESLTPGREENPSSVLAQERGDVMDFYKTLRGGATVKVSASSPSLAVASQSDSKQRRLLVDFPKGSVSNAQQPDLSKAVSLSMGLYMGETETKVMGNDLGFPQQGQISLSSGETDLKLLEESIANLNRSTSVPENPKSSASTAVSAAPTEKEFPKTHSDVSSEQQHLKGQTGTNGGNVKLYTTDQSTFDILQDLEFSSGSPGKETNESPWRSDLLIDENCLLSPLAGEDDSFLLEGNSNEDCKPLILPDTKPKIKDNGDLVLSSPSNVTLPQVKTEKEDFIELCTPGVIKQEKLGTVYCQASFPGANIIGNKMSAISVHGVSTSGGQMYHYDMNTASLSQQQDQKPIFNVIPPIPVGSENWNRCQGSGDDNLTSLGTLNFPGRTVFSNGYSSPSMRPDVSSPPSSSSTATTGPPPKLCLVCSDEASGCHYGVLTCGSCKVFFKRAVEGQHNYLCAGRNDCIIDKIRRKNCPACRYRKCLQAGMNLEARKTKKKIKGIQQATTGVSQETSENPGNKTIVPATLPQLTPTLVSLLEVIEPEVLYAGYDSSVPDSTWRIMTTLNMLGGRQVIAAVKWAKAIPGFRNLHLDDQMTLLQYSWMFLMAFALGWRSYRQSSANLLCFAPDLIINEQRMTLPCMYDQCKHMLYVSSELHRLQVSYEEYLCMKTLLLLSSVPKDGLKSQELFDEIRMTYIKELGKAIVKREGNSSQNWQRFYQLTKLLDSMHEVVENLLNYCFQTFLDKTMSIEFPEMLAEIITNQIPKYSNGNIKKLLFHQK
Description: (A,B). […] The stability of the complex was simulated using molecular dynamics in the GROMACS program. (C) GR binding affinity was estimated using a radioligand binding assay. […] Cell lysate radioactivity was measured using a RackBeta 1215 LC (LKB Wallac, Turku, Finland) spectrometer for 4 min. […] The experiments were performed in triplicate (n = 3).
After 90 min of incubation, the cells were washed twice by centrifugation in cold serum-free medium (1500 rpm, 5 min). The cells were then lysed with RIPA buffer (50 mM Tris (pH 8.0), 150 mM NaCl, 1 mM ethylenediaminetetraacetic acid, 0.1% sodium dodecyl sulfate, 0.5% sodium deoxycholate, 1% triton-X100, 10% glycerin, and protease inhibitor) for 20 min. Lysates were transferred to scintillation liquid, and radioactivity was measured using a RackBeta 1215 LC spectrometer for 4 min. […] IC50 was determined using GraphPad Prism software, Ver.7.0. […] “Top” meant the highest value in dpm and was equal to 100%, while the “bottom” was considered as the lowest value (0%). […] The IC50 values for each ligand were determined by plotting these curves. The experiments were performed in triplicate.

[2] = test system: DDIT4 expression in K562 cells; test: Q-PCR of DDIT4 in K562 cells; assay type: cell-based; conditions: 24 h, 8S-E3 25 µM
Source text: (§1) Q-PCR results were confirmed by Western blot analysis of the level of GR phosphorylated by Ser211, known as a crucial protein modification for GR TA realization because of its binding to short cysteine-rich fragments of the coactivator CREB-binding protein [41].
(§2) Figure 3 Effects of synephrine derivatives on GR transactivation in Granta lymphoma and K562 leukemia cells. (A) Q-PCR analysis of FKBP51, GILZ, and DDIT4 mRNA expression in K562 and Granta cells. […] The Q-PCR results were normalized to the expression of the housekeeping gene RPL27 and are presented as fold changes compared to the control. The mean ± SD was calculated for three individual samples/condition (n = 3). Statistically significant differences compared to the control: * p < 0.05, ** p < 0.01. (B) The levels of the nuclear fraction of phospho-GR (Ser211) were determined using Western blot analysis (n = 3; characteristic images are presented in the figure). Histone H3 was used as a loading control.
(§3) Total RNA isolation from cell cultures and murine bones, reverse transcription, and Q-PCR were performed as described in [36]. Primers were designed using NCBI Primer-BLAST https://www.ncbi.nlm.nih.gov/tools/primer-blast/, accessed on 25 August 2025 (Supplementary Table S1). Results were normalized to the expression of the housekeeping RPL27 и Rpl27 genes. The experiments were performed in triplicate.

[3] = test system: DDIT4 expression in Granta cells; test: Q-PCR of DDIT4 in Granta cells; assay type: cell-based; conditions: 24 h, 8S-E3 25 µM
Source text: as §1, §2, §3

[4] = test system: GR phosphorylated by Ser211 in K562 and Granta cells; test: Western blot of nuclear phospho-GR (Ser211); assay type: cell-based; conditions: 10 h; Dex 10 µM, 4S-C2 50 µM, 8S-E3 50 µM, 10S-E2 15 µM, 13S-G2 25 µM
Description: as §2
Western blot analysis was performed as previously described. Proteins were resolved using SDS-PAGE. Membranes were blocked with 5% nonfat milk solution and then incubated with primary antibodies against phosphorylated GR (pGR, Ser211) (“Santa Cruz Biotechnology”, Santa Cruz, CA, USA) overnight at 4 °C. To verify equal protein loading and adequate transfer, the membranes were probed with Histone H3 antibodies (“Cell Signaling”, Boston, MA, USA). Goat anti-rabbit IgGs (“Jackson Immuno Research”, West Grove, PA, USA) were used as secondary antibodies. Signals were detected using ECL reagent and an ImageQuant LAS4000 system (“GE HealthCare”, Chicago, IL, USA). ImageJ 1.54h software was used for densitometry. The experiments were performed in triplicate.
7 K562, pGR nuclear 5 Granta, pGR nuclear
Supplementary Figure S 22. Quantification of Western blot analysis. K562 and Granta cells […]
μM) and 13S-G2 (25 μ M) for 10 h. Quantification of Western blot anal ysis of p- GR protein levels was done usin g Im a ge J f ree so ftwar e. Statisticall y significant diff eren ces as compared to control: […]

[5] = test system: leukemia and lymphoma cells (Granta, K562); design: method as in PMID 39858397; conditions: leukemia and lymphoma cells; read-out: cell viability IC50; cited from earlier work
[6] = test system: FKBP51, GILZ, DDIT4 mRNA expression in K562 and Granta cells; test: Q-PCR of GR transactivation marker genes; assay type: cell-based; conditions: 4 h (FKBP51, GILZ) or 24 h (DDIT4); Dex 10 µM, 10S-E2 0.1 µM; vs control
Source text: as §1, §2, §3

[7] = test system: Granta cells; test: Cell cycle analysis by PI flow cytometry in Granta cells; assay type: cell-based; conditions: 24 h, Dex 50 µM, 4S-C2 25 µM, 8S-E3 12.5 µM, 10S-E2 6.25 µM, 13S-G2 1 µM
Description: (§4) Figure 5 Pro-apoptotic and anti-cancer effects of synephrine derivatives in vitro and in vivo. (A) Effect of 4S-C2, 8S-E3, 10S-E2, and 13S-G2 on cell cycle progression in K562 and Granta cells after 24 h of incubation. The cells were fixed with ethanol, stained with propidium iodide, and analyzed using flow cytometry. Statistically significant difference compared to control: *—p < 0.05, **—p < 0.01 (n = 3). (B) In vivo anti-cancer activity was evaluated using the transplantable P388 murine lymphoma model. […] Tumor nodule size was measured twice a week using digital calipers. Statistically significant differences compared to the control: * p < 0.05, ** p < 0.01.
The distribution of cells by cell cycle phases was evaluated using propidium iodide (PI) staining, as described in [19]. […] After incubation, the cells were resuspended in 70% ethanol and fixed for 2h at 4 °C. Cells were then washed twice with cold PBS, pH 7.4, and stained with 500 µL of cold propidium iodide (PI) solution (50 µg/mL PI, 1% Triton X-100, and 100 µg/mL RNase A in PBS). The cell cycle distribution of cells in samples was analyzed using an FACSCalibur Flow Cytometer (“BD Biosciences”, San Jose, CA, USA). The experiments were performed in triplicate.

[8] = test system: P388 murine lymphoma; test: Transplantable P388 murine lymphoma model; assay type: in vivo, mice; conditions: Dex 1 mg/kg
Description: as §4
The protocol for the experiment was approved by the local N.N. Blokhin National Medical Research Center Ethics Committee and corresponded to the guidelines for the welfare and use of animals in cancer research adopted by The United Kingdom Coordinating Committee on Cancer Prevention Research. P388 cells were injected i.p. into 5-week-old female DBA/2 mice (“Stolbovaya Farm”, Stolbovaya, Russia). After 15 days, the cells were collected from the peritoneum, washed, and resuspended in PBS. For the experiments, 0.1 mL containing 2 million cells obtained from the ascites was inoculated s.c. in 5-week-old female BDF1 mice (“Stolbovaya Farm”, Stolbovaya, Russia). […] Body weight was recorded twice a week for toxicity determination. Tumor size was measured three times per week using digital calipers.

[9] = test system: BALB/c female mice; test: Glucocorticoid-induced osteoporosis model: bone and skin morphometry, body weight; assay type: in vivo; conditions: Dex 20 mg/kg
Source text: (§5) (A) H&E bone staining and quantification of cortical bone thickness. (B) Q-PCR analysis of Rankl, Mmp9, Tsc2, Trap, and Bglap mRNA expression in bone tissue. […] (C) H&E skin staining and quantification of dermal adipose thickness (50 images per treatment group of 10 animals). Statistically significant differences compared to the control: * p < 0.05, ** p < 0.01.
(§6) The protocol for the experiment was approved by the local N.N. Blokhin National Medical Research Center Ethics Committee and corresponded to the guidelines for the welfare and use of animals in cancer research adopted by The United Kingdom Coordinating Committee on Cancer Prevention Research. […] Body weight was recorded twice a week for toxicity control.
Bone and skin samples from the GIOP experiment were fixed in formaldehyde and embedded in paraffin, and sections were stained with hematoxylin and eosin. After formaldehyde fixation, the bone samples were decalcified in decalcification buffer (0.5 M EDTA, 0.7 mM NaOH, pH7.0) for 14 days, washed twice with PBS, and further processed according to the standard histology protocol. The dermal adipose and bone thickness were quantified in sections stained with hematoxylin and eosin. At least five individual fields per slide of each sample/treatment (at least 50 images/treatment group) were analyzed using Axioplan2 microscope software (“Carl Zeiss”, Jena, Germany). The dermal adipose or bone thickness in treated animals is presented as a percentage of the control animals.

[10] = test system: Rankl, Mmp9, Tsc2, Trap, Bglap mRNA expression in bone tissue; test: Glucocorticoid-induced osteoporosis model: Q-PCR of marker genes in bone tissue; assay type: in vivo, mice; conditions: 5 weeks, Dex 20 mg/kg
Description: as §5
Total RNA isolation from cell cultures and murine bones, reverse transcription, and Q-PCR were performed as described in [36]. […] Results were normalized to the expression of the housekeeping RPL27 и Rpl27 genes. The experiments were performed in triplicate.
as §6

[11] = i.p. every 24 h for 5 weeks, 10S-E2 10 mg/kg

IC50 [1]	Bglap mRNA expression in bone tissue [10]	Rankl mRNA expression in bone tissue ([10]; 10S-E2 10 mg/kg)	Trap mRNA expression in bone tissue ([10]; 10S-E2 10 mg/kg)	SMILES	DDIT4 expression [2]	decrease in DDIT4 expression [3]	GR phosphorylation level at Ser211 [4]	IC50 [5]	expression of TA marker genes FKBP51, GILZ, DDIT4 [6]	level of apoptosis (sub-G1-phase cell population) [7]	animal body weight change vs control ([8]; P388 model, 10S-E2 10 mg/kg i.p. 3 times per week)	inhibition of tumor growth ([8]; s.c. P388 in BDF1 mice, i.p. 3 times per week, 10S-E2 10 mg/kg)	animal body weight vs control ([9]; GIOP study, 10S-E2 10 mg/kg i.p. every 24 h for 5 weeks)	loss of cortical bone thickness [9, 11]	reduction of dermal adipose tissue / skin atrophy [9, 11]	Mmp9 mRNA expression in bone tissue ([10]; 10S-E2 10 mg/kg)	Tsc2 mRNA expression in bone tissue ([10]; 10S-E2 10 mg/kg)
0.08 µM	–	–	–	OCCNCC(O)c1ccc(OCc2ccccc2)cc1 (stereo not drawn) [8S-E3, 1-(4-(benzyloxy)phenyl)-2-((2-hydroxyethyl)amino)ethanol]	strongly attenuated DDIT4 expression by more than three times	1,5 fold	weak increase	80 to 120 µM	–	–	–	–	–	–	–	–	–
–	Downregulation	upregulation	upregulation	C[C@@H]1C[C@H]2[C@@H]3CCC4=CC(=O)C=C[C@]4(C)[C@@]3(F)[C@@H](O)C[C@]2(C)[C@@]1(O)C(=O)CO [Dex, dexamethasone, reference compound]	–	–	weak increase	–	5-30 fold	higher than that in the control samples	no statisticall y si gnificant differences	60–70%	no statisticall y si gnificant differences; also recorded: similar	30%	approximately 70%	tendency toward Mmp9 and Tsc2 upregulation	tendency toward Mmp9 and Tsc2 upregulation
